Experimental findings from patent US20190169134A1, “NOVEL CLASS OF QUINOLONE HETEROCYCLIC AROMATIC MOLECULES FOR CANCER TREATMENT” (RenoTarget Therapeutics, Inc., priority 2016, published 2019) are described below.

Where “and” joins values, the source holds several entries; their conditions need not be identical. Identical values can stand only once.

One test relates to HCC827 P cells. Briefly: Western blot of EGFR downstream signaling. Type of test: cell-based, human. The settings on record: 24 hrs. On the procedure:
The cells were washed with PBS, harvested and cellular proteins were extracted. […] Protein or phosphor-protein levels of pEGFRTyr1068, pEGFRTry845, pAktSer473, pStat3Tyr705, MEK1/2, pMEK1/2, p27, and pp70 S6 kinase 2 were determined by Western blot using specific antibodies. β-actin was used as loading control.
HCC827 P or other indicated cells at exponential growth phase were treated with indicated compounds for 24 hrs. The cells were washed with PBS, harvested and cellular proteins were extracted.
In general terms: A western blot detects proteins with antibodies after separation by electrophoresis.

The target of a further test is T1, EGFR (Homo sapiens, UniProt P00533).
T1 construct: made in house; host or cells: cell-free system (rabbit reticulocyte lysate)
Briefly: KinaseSeeker competition binding assay. On the procedure:
(§1) Compound Reno647 was profiled against the following panel of kinases at 2 μM using the KinaseSeeker™ assay: ABL1, AKT1, AKT2, AKT3, ALK, AURKA, AXL, BRAF, BTK, CDK2, CDK5, CDK7, CDK8, CSF1R, DDR1, EGFR del L747-P753 InsS, EGFR (L861Q), EGFR (G719S), EGFR, EGFR (L858R), EPHA2, EPHB2, FGFR3, FLT1/VEGFR1, FLT2/FGFR1, FLT3, FLT4/VEGFR3, GSK-3a, HER2, IGF1R, INSR, KIT, LIMK1, MET, MLK2/MAP3K10, RPS6KA5/MSK1, MUSK, p38a/MAPK12, PDGFRA, PDGFRB, PDK1, RET, RIPK2, RPS6KA1/RSK1, SRC, TEC, TESK1, TRKB, VEGFR2, and YES 1.
(§2) KinaseSeeker is a homogeneous competition binding assay where the displacement of an active site dependent probe by an inhibitor is measured by a change in luminescence signal (see FIG. 7). Luminescence readout translates into a highly sensitive and robust assay with low background and minimal interference from test compounds.
(§3) (Jester, Cox et al. 2010; Jester, Gaj et al. 2012): 10 mM stock of compound Reno647 was diluted in DMSO to a concentration of 50 μM. Prior to initiating a profiling campaign, the compound was evaluated for false positive against split-luciferase. The compound was then screened in duplicate against each of the kinases. For kinase assays, each Cfluc-Kinase was translated along with Fos-Nfluc using a cell-free system (rabbit reticulocyte lysate) at 30° C. for 90 min. A 24 μL aliquot of this lysate containing either 1 μL of DMSO (for no-inhibitor control) or compound solution in DMSO (2 LM final concentration) was incubated for 30 minutes at room temperature followed by 1 hour in the presence of a kinase specific probe. A 80 μL of luciferin assay reagent was added to each solution and luminescence was immediately measured on a luminometer.
(§4) The % Inhibition and % Activity Remaining were calculated using the following equations:
(§5) % inhibition=(ALUcontrol−ALUsample)×100
(§6) % activity=100−% inhibition.
(§7) The same assay design was used as described in example section 3.1.
(§8) 10 mM stock solutions of compound Reno647 was serially diluted in DMSO to make assay stocks. Prior to initiating IC50 determination, the test compound was evaluated for false positive against split-luciferase.
(§9) Reno647 was screened against 6 kinases (EGFR, EGFR del L747 P753 InsS, EGFR G719S, EGFR L858R, EGFR L861Q, RIPK2) at a minimum of 8 different concentrations in duplicate. For kinase assays, a 24 μL aliquot of lysate containing Cfluc-kinase and Fos-Nfluc was incubated for 30 minutes at room temperature with either 1 μL of DMSO (for no-inhibitor control) or compound solution in DMSO, followed by 1 hour incubation in the presence of a kinase specific probe. A 80 μL of luciferin assay reagent was added to each solution and luminescence was immediately measured on a luminometer.
(§10) % inhibition=(ALUcontrol−ALUsample)/ALcontrol×100
(§11) The % Activity was plotted against compound concentration and the IC50 was determined for each compound using an 8-point curve.

Another test deals with T2, EGFR (G719S) (Homo sapiens, UniProt P00533, G719S).
T2 construct: made in house; host or cells: cell-free system (rabbit reticulocyte lysate)
The test is described as follows: KinaseSeeker competition binding assay. The method, then: as §1, §2, §3, §4, §5, §6, §7, §8, §9, §10, §11

The target of the next test is T3, EGFR del L747-P753 Ins S (Homo sapiens, UniProt P00533, DEL747-752/P753S).
T3 construct: made in house; host or cells: cell-free system (rabbit reticulocyte lysate)
The test is described as follows: KinaseSeeker competition binding assay. The method, then: as §1, §2, §3, §4, §5, §6, §7, §8, §9, §10, §11

The target of a further test is T4, EGFR(L861Q) (Homo sapiens, UniProt P00533, L861Q).
T4 construct: made in house; host or cells: cell-free system (rabbit reticulocyte lysate)
Briefly: KinaseSeeker competition binding assay. The method, then: as §1, §2, §3, §4, §5, §6, §7, §8, §9, §10, §11

The target in another test is T5, EGFR (L858R) (Homo sapiens, UniProt P00533, L858R).
T5 construct: made in house; host or cells: cell-free system (rabbit reticulocyte lysate)
The test is described as follows: KinaseSeeker competition binding assay. The method, then: as §1, §2, §3, §4, §5, §6, §7, §8, §9, §10, §11

The test system of the next test is HCC827-P. Briefly: qRT-PCR expression of Caspase 3, Caspase 9 and p21. Type of test: cell-based, human. As to conditions: 24 h. On the procedure:
FIG. 10 depicts the effect of Reno647 on expressions of Caspase 3, Caspase 9 and p21 in HCC827-P and on Box, Bcl2, p53 and p21 in HCC827-OR16 cells. […] Total cellular RNA was extracted and cDNA was prepared followed by qRT-PCR using specific probes as described in the section of Materials and Methods. Tgene ΔCt value was normalized for GAPDH by calculating ΔCt=Ctgene−CtGAPDH per sample.
HCC827 P or other indicated cells at exponential growth phase were treated with indicated concentrations of compounds for 24 hours. Total cellular RNA was prepared from lysed tumor cells using an RNA Purification kit (ThermoFisher Scientific). The first-strand of cDNA was synthesized using a High Capacity cDNA reverse transcription kit (ThermoFisher Scientific) in PTC-100 Peltier Thermal Cycler PCR. The resultant cDNA (0.5-1 μL) was used in a 10 μl reaction by using Taqman Universal PCR Master Mix (ThermoFisher Scientific). The pre-designed primers and probe were purchased from Life Technologies and used for qPCR. Human GAPDH was used as an internal control. qPCR was performed using Applied Biosystems StepOne and StepOnePlus Real-Time PCR Systems according manufacturer's instructions. An initial PCR denaturation step was performed at 95° C. for 20 seconds. The general cycling stage for qPCR were as follows: denaturation at 95° C. for 1 second, annealing and extension at 60° C. for 20 seconds, repeat for 40 cycles. Tgene ΔCt value was normalized for GAPDH by calculating ΔCt=Ctgene−CtGAPDH per sample.
Background: In qPCR the cycle at which signal appears reflects the starting amount.

T3 sequence (P00533 with tags, fused parts or gaps DEL747-752/P753S): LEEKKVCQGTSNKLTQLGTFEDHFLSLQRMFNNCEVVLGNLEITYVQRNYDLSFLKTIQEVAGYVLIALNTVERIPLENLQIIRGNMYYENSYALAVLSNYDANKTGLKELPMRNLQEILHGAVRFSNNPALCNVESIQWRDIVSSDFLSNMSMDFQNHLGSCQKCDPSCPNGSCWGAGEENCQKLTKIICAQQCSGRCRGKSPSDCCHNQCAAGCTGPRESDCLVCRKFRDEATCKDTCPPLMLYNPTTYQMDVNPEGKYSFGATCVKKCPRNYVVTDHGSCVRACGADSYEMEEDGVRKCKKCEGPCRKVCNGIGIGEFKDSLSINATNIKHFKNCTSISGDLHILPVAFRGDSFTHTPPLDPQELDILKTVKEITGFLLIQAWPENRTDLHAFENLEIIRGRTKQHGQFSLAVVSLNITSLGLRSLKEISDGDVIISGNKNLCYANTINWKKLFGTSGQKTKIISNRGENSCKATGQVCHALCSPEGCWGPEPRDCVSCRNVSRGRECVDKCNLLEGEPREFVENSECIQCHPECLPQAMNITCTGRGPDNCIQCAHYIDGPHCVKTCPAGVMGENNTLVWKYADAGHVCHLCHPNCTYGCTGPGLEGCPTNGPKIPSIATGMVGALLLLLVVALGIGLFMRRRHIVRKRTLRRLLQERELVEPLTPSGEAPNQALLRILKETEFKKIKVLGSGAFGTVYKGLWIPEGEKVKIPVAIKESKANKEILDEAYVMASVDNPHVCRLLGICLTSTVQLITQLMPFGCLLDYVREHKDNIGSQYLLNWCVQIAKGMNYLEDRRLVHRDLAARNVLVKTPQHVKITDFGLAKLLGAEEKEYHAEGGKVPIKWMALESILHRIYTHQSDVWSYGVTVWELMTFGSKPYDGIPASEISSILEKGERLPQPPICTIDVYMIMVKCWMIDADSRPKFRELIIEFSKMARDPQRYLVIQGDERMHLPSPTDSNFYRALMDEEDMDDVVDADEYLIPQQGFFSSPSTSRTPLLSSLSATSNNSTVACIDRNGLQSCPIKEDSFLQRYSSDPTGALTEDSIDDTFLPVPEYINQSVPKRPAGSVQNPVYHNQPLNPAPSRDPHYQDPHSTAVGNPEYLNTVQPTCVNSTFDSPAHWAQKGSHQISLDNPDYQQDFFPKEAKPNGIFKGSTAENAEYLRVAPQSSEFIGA
T2 sequence (P00533 25-1210 G719S): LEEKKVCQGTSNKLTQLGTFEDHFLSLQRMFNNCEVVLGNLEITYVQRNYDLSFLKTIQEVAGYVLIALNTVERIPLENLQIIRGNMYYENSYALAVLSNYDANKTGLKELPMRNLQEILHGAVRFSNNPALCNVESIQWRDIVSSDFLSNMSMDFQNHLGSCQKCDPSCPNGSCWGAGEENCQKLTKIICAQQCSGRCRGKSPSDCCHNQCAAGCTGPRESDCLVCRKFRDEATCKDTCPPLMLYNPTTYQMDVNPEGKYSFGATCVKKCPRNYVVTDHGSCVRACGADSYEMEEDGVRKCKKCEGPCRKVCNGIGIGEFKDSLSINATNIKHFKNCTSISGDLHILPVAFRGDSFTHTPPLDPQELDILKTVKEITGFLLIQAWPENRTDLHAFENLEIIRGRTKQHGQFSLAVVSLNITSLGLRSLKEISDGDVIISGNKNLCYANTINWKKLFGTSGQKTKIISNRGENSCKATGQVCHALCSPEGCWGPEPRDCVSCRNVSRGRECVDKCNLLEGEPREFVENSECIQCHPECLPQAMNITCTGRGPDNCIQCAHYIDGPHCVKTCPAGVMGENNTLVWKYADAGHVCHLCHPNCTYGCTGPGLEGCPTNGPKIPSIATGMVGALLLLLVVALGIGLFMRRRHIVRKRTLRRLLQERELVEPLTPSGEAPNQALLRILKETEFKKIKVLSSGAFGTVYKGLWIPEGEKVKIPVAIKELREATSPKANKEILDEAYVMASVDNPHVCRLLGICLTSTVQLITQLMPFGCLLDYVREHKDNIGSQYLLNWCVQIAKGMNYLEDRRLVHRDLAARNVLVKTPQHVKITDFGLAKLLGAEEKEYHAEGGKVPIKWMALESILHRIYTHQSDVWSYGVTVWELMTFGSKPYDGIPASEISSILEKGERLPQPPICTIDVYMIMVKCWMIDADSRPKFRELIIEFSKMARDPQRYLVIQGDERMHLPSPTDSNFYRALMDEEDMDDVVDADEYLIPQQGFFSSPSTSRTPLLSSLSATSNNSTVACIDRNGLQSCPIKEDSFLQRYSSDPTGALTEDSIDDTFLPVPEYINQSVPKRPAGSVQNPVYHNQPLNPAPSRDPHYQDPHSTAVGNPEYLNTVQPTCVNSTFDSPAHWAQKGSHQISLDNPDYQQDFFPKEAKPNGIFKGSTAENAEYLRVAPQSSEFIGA
T1 sequence (P00533 25-1210): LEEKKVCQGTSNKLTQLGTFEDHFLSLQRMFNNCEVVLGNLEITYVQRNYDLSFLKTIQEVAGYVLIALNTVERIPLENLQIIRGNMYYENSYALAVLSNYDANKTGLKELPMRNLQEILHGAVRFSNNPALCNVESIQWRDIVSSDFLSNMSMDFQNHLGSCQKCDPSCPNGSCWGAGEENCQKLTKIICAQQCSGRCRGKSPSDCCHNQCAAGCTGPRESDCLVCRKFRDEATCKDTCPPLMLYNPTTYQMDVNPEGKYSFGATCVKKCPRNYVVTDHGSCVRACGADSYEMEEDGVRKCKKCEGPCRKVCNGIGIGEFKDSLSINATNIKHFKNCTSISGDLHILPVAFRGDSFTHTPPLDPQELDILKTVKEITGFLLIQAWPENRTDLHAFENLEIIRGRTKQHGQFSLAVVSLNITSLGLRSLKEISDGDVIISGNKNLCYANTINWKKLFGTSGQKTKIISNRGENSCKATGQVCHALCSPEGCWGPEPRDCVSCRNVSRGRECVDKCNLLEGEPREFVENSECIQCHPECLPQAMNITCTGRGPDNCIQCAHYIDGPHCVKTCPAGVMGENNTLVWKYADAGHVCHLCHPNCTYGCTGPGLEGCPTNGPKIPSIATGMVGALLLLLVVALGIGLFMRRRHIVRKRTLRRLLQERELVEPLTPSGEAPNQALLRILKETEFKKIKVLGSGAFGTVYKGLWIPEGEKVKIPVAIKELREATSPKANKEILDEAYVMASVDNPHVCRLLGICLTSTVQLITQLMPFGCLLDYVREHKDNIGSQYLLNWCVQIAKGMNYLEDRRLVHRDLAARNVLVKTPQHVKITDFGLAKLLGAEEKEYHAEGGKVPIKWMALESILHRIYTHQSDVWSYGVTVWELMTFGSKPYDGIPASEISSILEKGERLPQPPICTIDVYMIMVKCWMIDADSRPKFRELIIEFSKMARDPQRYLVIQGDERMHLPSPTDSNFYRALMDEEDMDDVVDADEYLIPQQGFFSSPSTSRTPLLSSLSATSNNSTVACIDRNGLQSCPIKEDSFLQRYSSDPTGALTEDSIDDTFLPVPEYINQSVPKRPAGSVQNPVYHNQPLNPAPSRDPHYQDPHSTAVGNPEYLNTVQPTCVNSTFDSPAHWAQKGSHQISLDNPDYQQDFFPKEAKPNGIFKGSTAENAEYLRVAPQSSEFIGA
T5 sequence (P00533 25-1210 L858R): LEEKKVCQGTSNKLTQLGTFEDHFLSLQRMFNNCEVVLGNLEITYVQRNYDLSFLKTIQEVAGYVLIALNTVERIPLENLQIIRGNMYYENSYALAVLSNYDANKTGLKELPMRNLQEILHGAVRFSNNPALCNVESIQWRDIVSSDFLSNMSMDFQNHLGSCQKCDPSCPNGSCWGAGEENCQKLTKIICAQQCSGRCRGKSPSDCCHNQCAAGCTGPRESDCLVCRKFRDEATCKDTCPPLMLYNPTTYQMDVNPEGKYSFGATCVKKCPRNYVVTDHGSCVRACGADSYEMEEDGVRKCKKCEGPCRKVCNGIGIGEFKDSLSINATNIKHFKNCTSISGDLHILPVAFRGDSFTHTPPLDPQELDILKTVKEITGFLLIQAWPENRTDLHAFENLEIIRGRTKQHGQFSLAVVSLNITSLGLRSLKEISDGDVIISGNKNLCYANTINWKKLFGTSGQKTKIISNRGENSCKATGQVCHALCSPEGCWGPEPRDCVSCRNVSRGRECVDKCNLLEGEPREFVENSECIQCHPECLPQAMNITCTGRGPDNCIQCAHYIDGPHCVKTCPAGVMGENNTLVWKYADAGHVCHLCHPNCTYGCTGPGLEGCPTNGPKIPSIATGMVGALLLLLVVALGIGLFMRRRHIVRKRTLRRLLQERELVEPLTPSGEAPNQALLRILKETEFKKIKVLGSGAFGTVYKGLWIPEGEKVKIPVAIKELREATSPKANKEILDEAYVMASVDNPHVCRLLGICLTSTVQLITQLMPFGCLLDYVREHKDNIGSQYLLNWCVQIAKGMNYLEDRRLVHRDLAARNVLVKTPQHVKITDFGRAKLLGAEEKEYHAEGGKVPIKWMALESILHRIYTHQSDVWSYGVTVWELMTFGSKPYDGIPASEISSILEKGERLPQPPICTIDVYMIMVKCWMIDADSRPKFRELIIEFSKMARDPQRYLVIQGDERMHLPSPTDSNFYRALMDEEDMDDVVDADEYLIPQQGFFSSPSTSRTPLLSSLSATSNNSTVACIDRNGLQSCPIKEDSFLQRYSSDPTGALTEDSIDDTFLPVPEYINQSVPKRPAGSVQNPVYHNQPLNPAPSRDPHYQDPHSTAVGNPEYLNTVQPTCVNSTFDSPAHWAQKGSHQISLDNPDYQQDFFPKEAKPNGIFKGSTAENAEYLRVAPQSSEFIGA

By IC50 is commonly meant the concentration needed to halve the response being measured. Consider `C#Cc1cccc(Nc2ncnc3cc(OCCOC)c(NC(=O)c4ccc(F)c([N+](=O)[O-])c4)cc23)c1` [Reno647, 4-Fluoro-N-[4-(3-ethynyl-phenylamino)-7-(2-methoxy-ethoxy)-quinazolin-6-yl]-3-nitro-benzamide], for which the Phospho-Akt level entry with HCC827 P cells was “significantly reduced”. Besides, the “level of pEGFRTyr845” value with HCC827 P cells is “significantly decreased”. In the test on HCC827 P cells, the “level of pEGFRTyr1068” value was “significantly decreased”. Besides, the “level of pERK1/2 (Ras/Raf/MEK pathway)” value in the test on HCC827 P cells was “significant decrease”. Also, in the test on HCC827 P cells, the p27 level entry was “induction”. The “pp-70-6S activity (p70-S6 activation)” value in the test on HCC827 P cells is “significant decreases”. In addition, in the test on HCC827 P cells, the “total MEK1/2 protein level” value is “no changes”. Besides, the remaining binding at 2 µM on EGFR (2 μM, wild-type EGFR) worked out at 66.7%; at EGFR (G719S) (2 μM, EGFR (G719S)), 30.2%; at EGFR del L747-P753 Ins S (2 μM, EGFR del L747-P753 Ins S), 14.8%; on EGFR(L861Q) (2 μM, EGFR(L861Q)), 20.7%; on EGFR (L858R) (2 μM, EGFR (L858R)), 7.2%. For the same compound, the IC50 at EGFR (8-point curve, duplicate, read-out: IC50 wild-type of EGFR) was 25 µM; on EGFR (G719S) (8-point curve, duplicate), 0.971 µM; at EGFR del L747-P753 Ins S (8-point curve, duplicate, read-out: IC50 EGFR del L747-P753 InsS), 0.0777 µM and 0.077 µM; at EGFR(L861Q) (8-point curve, duplicate), 0.574 µM; at EGFR (L858R) (8-point curve, duplicate), 0.159 µM. Besides, the p21 expression entry with HCC827-P (q-RT-PCR) was “significant induction”. In the test on HCC827-P (qRT-PCR), the “Caspase 3 expression” value is given as “moderate increase”. The “Caspase 9 expression” value with HCC827-P (qRT-PCR) was “significant and concentration-dependent induction”.
